Measured values published in ChEMBL document CHEMBL1136817, “1,3,4-Trisubstituted pyrrolidine CCR5 receptor antagonists: modifications of the arylpropylpiperidine side chains” (Bioorg Med Chem Lett, 2003).

Columns and labels:
[1] = target: T1, C-C chemokine receptor type 5 (Homo sapiens, UniProt P51681); experiment: (§1) Ability to displace [125I]- labeled MIP-1alpha from CCR5 receptor expressed on CHO cell membrane; assay type: cell membranes
Target sequence in this assay (P51681 whole entry): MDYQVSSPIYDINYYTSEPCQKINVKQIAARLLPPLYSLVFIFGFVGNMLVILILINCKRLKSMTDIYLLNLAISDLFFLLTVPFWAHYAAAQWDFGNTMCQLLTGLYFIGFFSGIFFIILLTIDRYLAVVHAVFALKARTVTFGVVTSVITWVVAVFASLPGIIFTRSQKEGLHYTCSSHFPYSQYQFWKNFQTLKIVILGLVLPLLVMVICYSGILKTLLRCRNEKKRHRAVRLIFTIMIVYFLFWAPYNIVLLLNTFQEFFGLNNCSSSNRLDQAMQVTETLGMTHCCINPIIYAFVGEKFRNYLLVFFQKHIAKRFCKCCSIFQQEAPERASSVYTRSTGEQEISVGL

[2] = tested on: Human immunodeficiency virus 1; experiment: In vitro antiviral activity against HIV-1 (BAL) in HeLa cells.; assay type: functional
[3] = Volume of distribution was evaluated in rat; assay type: ADME, organism-based; details: in vivo, read-out: Vdss
[4] = Oral bioavailability in rat; assay type: ADME, organism-based; details: in vivo
[5] = Plasma clearance was evaluated in rat; assay type: ADME, organism-based; details: read-out: Clp
[6] = Half life was evaluated in rat; assay type: ADME, organism-based; details: in vivo
[7] = target: T1, C-C chemokine receptor type 5; experiment: as §1; assay type: cell membranes; remark: listed apart in the source
Target sequence in this assay (P51681 whole entry, looked up): as the sequence (P51681 whole entry) above

[8] = Inhibitory concentration measured by peripheral blood mononuclear cells (BAL) viral assay; assay type: functional, Homo sapiens
[9] = Half life was evaluated in rhesus; assay type: ADME; details: cercopithecidae, in vivo
[10] = Oral bioavailability in Rhesus monkey; assay type: ADME, organism-based, Macaca mulatta; details: in vivo
[11] = Plasma clearance was evaluated in rhesus; assay type: ADME, organism-based; details: cercopithecidae, read-out: Clp
[12] = Volume of distribution was evaluated in rhesus; assay type: ADME, organism-based; details: cercopithecidae, in vivo; read-out: Vdss
[13] = Inhibitory concentration measured by Peripheral blood mononuclear cells (BAL) viral assay; assay type: functional; details: Homo sapiens
HeLa = experiment: Inhibitory concentration obtained in the HeLa cell anti infectivity assay versus BAL strain; assay type: functional; details: Homo sapiens
[14] = Oral bioavailability; assay type: ADME, organism-based; details: rat, in vivo
[15] = Volume of distribution was evaluated in dog; assay type: ADME, organism-based, Canis lupus familiaris; details: in vivo, read-out: Vdss
[16] = Oral bioavailability in dog; assay type: ADME, organism-based, Canis lupus familiaris; details: in vivo
[17] = Half life was evaluated in dog; assay type: ADME, organism-based, Canis lupus familiaris; details: in vivo
[18] = Plasma clearance was evaluated in dog; assay type: ADME, organism-based, Canis lupus familiaris; details: read-out: Clp
[19] = Inhibitory concentration by Peripheral blood mononuclear cells assay; assay type: functional; details: Homo sapiens
[20] = Human immunodeficiency virus 1, HeLa

Row | SMILES | IC50 [1] [nM] | IC90 [2, 20] [nM] | clearance [5] [mL/min/kg] | half-life [6] [h] | other results
1 | CC(C)[C@H](C(=O)O)N1C[C@H](CN2CCC(CCC(F)(F)c3ccc(F)cc3)CC2)[C@@H](c2cccc(F)c2)C1 | 0.5 | 33 | – | – | –
2 | O=C(O)[C@@H](CC1CCC1)N1C[C@H](CN2CCC(CCS(=O)(=O)c3ccc(F)cc3)CC2)[C@@H](c2cccc(F)c2)C1 | – | 0.4 | 78 | 0.8 | Vd [3]: 1.9 L/kg; bioavailability [4]: 16%; IC95 [7]: 0.2 nM; IC50 [8]: 1.6 nM
3 | CC(C)[C@H](C(=O)O)N1C[C@H](CN2CCC(CCS(=O)(=O)c3ccc(F)cc3)CC2)[C@@H](c2cccc(F)c2)C1 | 0.9 | 4 | – | – | –
4 | O=C(O)[C@@H](CC1CC1)N1C[C@H](CN2CCC(CCP(=O)(O)c3ccccc3)CC2)[C@@H](c2cccc(F)c2)C1 | 1000 | – | – | – | –
5 | CC(O)(CCC1CCN(C[C@H]2CN([C@H](CC3CC3)C(=O)O)C[C@@H]2c2cccc(F)c2)CC1)c1ccc(F)cc1 (stereo partly drawn) | 1.6 | 1.2 | 5.4 | 1.6 | Vd [3]: 3.9 L/kg; bioavailability [4]: 10%
6 | O=C(O)[C@@H](CC1CCC1)N1C[C@H](CN2CCC(CCSc3ccc(F)cc3)CC2)[C@@H](c2cccc(F)c2)C1 | 0.1 | 4 | – | – | –
7 | O=C(O)[C@@H](CC1CCC1)N1C[C@H](CN2CCC(CCCc3ccccc3)CC2)[C@@H](c2ccccc2)C1 | – | – | – | – | IC90 (HeLa): 1.2 nM; IC50 [8]: < 8 nM
8 | O=C(O)[C@@H](CC1CCC1)N1C[C@H](CN2CCC(CCCc3ccc(C(F)(F)F)cc3)CC2)[C@@H](c2cccc(F)c2)C1 | 0.2 | 11 | – | – | –
9 | O=C(CCC1CCN(C[C@H]2CN([C@@H](C(=O)O)C3CCCCC3)C[C@@H]2c2ccccc2)CC1)c1ccc(F)cc1 | 1.6 | 100 | – | – | –
10 | O=C(O)[C@@H](CC1CCC1)N1C[C@H](CN2CCC(CC[S+]([O-])c3ccc(F)cc3)CC2)[C@@H](c2cccc(F)c2)C1 (stereo in doubt; 31) | 0.4 | – | – | – | IC90 [2]: 0.8 nM
11 | COC(=O)C(CCC1CCN(C[C@H]2CN([C@H](CC3CC3)C(=O)O)C[C@@H]2c2cccc(F)c2)CC1)c1ccc(F)cc1 (stereo partly drawn) | 1.5 | 33 | – | – | –
12 | O=C(O)[C@@H](CC1CCC1)N1C[C@H](CN2CCC(CC[S+]([O-])c3ccc(F)cc3)CC2)[C@@H](c2cccc(F)c2)C1 (stereo in doubt; 30) | 0.5 | – | – | – | IC90 [2]: 33 nM
13 | CC(C)[C@H](C(=O)O)N1C[C@H](CN2CCC(CCSc3ccc(F)cc3)CC2)[C@@H](c2cccc(F)c2)C1 | 0.8 | 100 | – | – | –
14 | O=C(O)[C@@H](CC1CCC1)N1C[C@H](CN2CCC(CCCc3ccccc3)CC2)[C@@H](c2cccc(F)c2)C1 | 0.5 | – | 32 | 3.4 | bioavailability [14]: 24%
15 | N#Cc1ccc(CCCC2CCN(C[C@H]3CN([C@H](CC4CCC4)C(=O)O)C[C@@H]3c3cccc(F)c3)CC2)cc1 | 0.3 | 0.4 | 47.8 | 1 | bioavailability [14]: 7%
16 | O=C(O)[C@@H](CC1CC1)N1CC(CN2CCC(CCC(F)(F)c3ccc(F)cc3)CC2)[C@@H](c2cccc(F)c2)C1 (single isomer, unassigned) | 0.06 | 0.4 | 14 | 7.5 | half-life [9]: 5.6 h; Vd [3]: 6.1 L/kg; Vd [15]: 3.7 L/kg; bioavailability [10]: 8%; bioavailability [4]: 3.9%; clearance [11]: 17.6 mL/min/kg; Vd [12]: 2.8 L/kg; bioavailability [16]: 37%; half-life [17]: 2.4 h; clearance [18]: 24 mL/min/kg; IC95 [13]: 12 nM; IC95 [19]: < 20 nM
17 | O=C(O)[C@@H](CC1CC1)N1C[C@H](CN2CCC(CCC(O)c3ccc(F)cc3)CC2)[C@@H](c2cccc(F)c2)C1 (stereo partly drawn) | 0.4 | 1.2 | 76 | 0.9 | Vd [3]: 3.3 L/kg; bioavailability [4]: 2%; IC95 [13]: 15 nM

Further lines, with some results ahead:

Row | IC50 [1] [nM] | IC90 [2, 20] [nM] | clearance [5] [mL/min/kg] | half-life [6] [h] | SMILES | other results
18 | 0.3 | 1.6 | 18 | 3.1 | O=C(O)[C@@H](CC1CCC1)N1CC(CN2CCC(CCC(F)(F)c3ccc(F)cc3)CC2)[C@@H](c2cccc(F)c2)C1 (single isomer, unassigned) | half-life [9]: 2.4 h; Vd [3]: 2.2 L/kg; bioavailability [10]: 12%; bioavailability [4]: 32%; clearance [11]: 11 mL/min/kg; Vd [12]: 1.8 L/kg; IC95 [13]: 18 nM
19 | 51 | – | – | – | O=C(O)C(CCC1CCN(C[C@H]2CN([C@H](CC3CC3)C(=O)O)C[C@@H]2c2cccc(F)c2)CC1)c1ccc(F)cc1 (stereo partly drawn) | –
20 | 3.7 | 100 | – | – | O=C(O)[C@@H](CC1CC1)N1C[C@H](CN2CCC(CCC3(c4ccc(F)cc4)OCCO3)CC2)[C@@H](c2cccc(F)c2)C1 | –
21 | 4.8 | 33 | – | – | O=C(O)[C@@H](CC1CC1)N1C[C@H](CN2CCC(CCC(CO)c3ccc(F)cc3)CC2)[C@@H](c2cccc(F)c2)C1 (stereo partly drawn) | –
22 | 1.1 | 0.4 | – | – | O=C(O)[C@@H](C1CCCCC1)N1C[C@H](CN2CCC(CCS(=O)(=O)c3ccc(F)cc3)CC2)[C@@H](c2cccc(F)c2)C1 | –
23 | 0.8 | 2 | 32 | 3.4 | O=C(O)[C@@H](CC1CCC1)N1C[C@H](CN2CCC(CCCc3ccc(F)cc3)CC2)[C@@H](c2cccc(F)c2)C1 | bioavailability [14]: 16%
24 | 19 | – | – | – | COP(=O)(CCC1CCN(C[C@H]2CN([C@H](CC3CC3)C(=O)O)C[C@@H]2c2cccc(F)c2)CC1)c1ccccc1 (stereo partly drawn) | –
25 | 0.3 | 4 | – | – | O=C(O)[C@@H](C1CCCCC1)N1C[C@H](CN2CCC(CCC(F)(F)c3ccc(F)cc3)CC2)[C@@H](c2ccccc2)C1 | –
26 | 0.2 | – | – | – | O=C(O)[C@@H](CC1CCC1)N1CC(CN2CCC(CCC(F)(F)c3ccc(F)cc3)CC2)[C@@H](c2ccccc2)C1 (single isomer, unassigned) | –
